The results in this text go back to patent US9333205B2, “Isoxazolo-quinazolines as modulators of protein kinase activity” (NERVIANO MEDICAL SCIENCES S.R.L., priority 2010, dated 2016).

One test concerns the target MPS1 (Homo sapiens (Human), UniProt P33981). Put plainly: Biochemical trans-phosphorylation (Dowex, 33P-γ-ATP) assay for inhibitors of MPS1 kinase activity. Particulars: MPS1 5 nM, 15 microM ATP, P38-βtide 200 microM. From the text: Cloning, Expression and Purification of Recombinant MPS1 Full Length Protein.
MPS1 full length (corresponding to residues 2-857 of the full length sequence, see Swiss-Prot accession number P33981) was PCR amplified from the full-length human MPS1 gene present in house as clone pGEX4t_MPS1.
Baculoviruses were generated by cotransfecting Sf9 insect cells with the expression vector and the viral DNA using the BaculoGold® transfection kit (Pharmingen). Viral supernatant was recovered after 5 days and subjected to 3 rounds of amplification to increase viral titer. Recombinant protein was produced by infecting High5 insect cells. After 72 hours of infection at 21° C., cells were recovered, pelletted and freezed at −80° C. For purification of recombinant protein, pellet was thawed, resuspended in lysis buffer (PBS, NaCl 150 mM, Glycerol 10%, CHAPS 0.1%, DTT 20 mM, protease and phosphatase inhibitors) and lysed by Gaulin. Lysate was cleared by centrifugation and loaded on a GST affinity column. After extensive wash, recombinant protein was cleaved by a specific protease and eluted by incubation.
To get a fully activated enzyme, the protein was then subjected to auto-phosphorylation in presence of ATP 1 mM at 25° C. for 2 hours in kinase buffer (Hepes pH7.5 50 mM, MgCl2 2.5 mM, MnCl2 1 mM, DTT 1 mM, phosphatase inhibitors); ATP was then removed whit a desalting column.
(§1) Biochemical Assay for Inhibitors of MPS1 and PERK Kinase Activity
(§2) The inhibitory activity of putative kinase inhibitors and the potency of selected compounds were determined using a trans-phosphorylation assay.
Specific peptide or protein substrates are trans-phosphorylated by their specific ser-thr or tyr kinase in the presence of ATP traced with ^33P-γ-ATP, and in the presence of their own optimal buffer and cofactors. […]
Supernatant is subsequently withdrawn and transferred into a counting plate, then evaluated by β-counting. […]

Another test concerns the target PERK (Homo sapiens (Human), UniProt Q9NZJ5). Put plainly: Biochemical trans-phosphorylation (Dowex, 33P-γ-ATP) assay for inhibitors of PERK kinase activity. Particulars: PERK 8 nM, 52 microM ATP, eIF2alfa-tide 300 microM. As to the method: Cloning, Expression and Purification of Recombinant PERK Cytoplasmic Domain Protein.
PERK cytoplasmic domain (corresponding to residues 540-1115; Swiss-Prot accession number Q9NZJ5) was PCR amplified using the following forward oligonucleotide:
Recombinant protein was produced in BL21(DE3)pLysS strain, in auto-induction medium, at 21° C. for 24 hours (see F. W. Studier, “Protein production by auto-induction in high density shaking cultures”, Protein Expression and Purification (2005) vol. 41:207-234). The cells were recovered by centrifugation, and the pellet frozen at −80° C. For purification of recombinant protein, pellet was thawed, resuspended in lysis buffer (Tris-HCl 50 mM pH 7.6, NaCl 250 mM, Glycerol 10%, CHAPS 0.2%, Imidazole 5 mM, protease and phosphatase inhibitors) and lysed by Gaulin homogenizer. Lysate was cleared by centrifugation and loaded on a Ni-NTA and the eluate on a GST affinity column. After extensive wash, recombinant protein was cleaved by a specific protease and eluted. Recombinant PERK cytoplasmic domain obtained by this protocol was >85% pure by coomassie stained SDS-PAGE.
as §1, §2
Specific peptide or protein substrates are trans-phosphorylated by their specific ser-thr or tyr kinase in the presence of ATP traced with ^33P-γ-ATP, and in the presence of their own optimal buffer and cofactors.
At the end of the phosphorylation reaction, more than 98% unlabeled ATP and radioactive ATP is captured by an excess of the ion exchange dowex resin; the resin then settles down to the bottom of the reaction plate by gravity.
Supernatant is subsequently withdrawn and transferred into a counting plate, then evaluated by β-counting.
The buffer for PERK assay was composed of HEPES 50 mM, at pH 7.5 with 3 mM MgCl2, 1 mM DTT, 3 microM Na3VO4, and 0.2 mg/mL BSA […]

PERK, sequence (Q9NZJ5 540-1115): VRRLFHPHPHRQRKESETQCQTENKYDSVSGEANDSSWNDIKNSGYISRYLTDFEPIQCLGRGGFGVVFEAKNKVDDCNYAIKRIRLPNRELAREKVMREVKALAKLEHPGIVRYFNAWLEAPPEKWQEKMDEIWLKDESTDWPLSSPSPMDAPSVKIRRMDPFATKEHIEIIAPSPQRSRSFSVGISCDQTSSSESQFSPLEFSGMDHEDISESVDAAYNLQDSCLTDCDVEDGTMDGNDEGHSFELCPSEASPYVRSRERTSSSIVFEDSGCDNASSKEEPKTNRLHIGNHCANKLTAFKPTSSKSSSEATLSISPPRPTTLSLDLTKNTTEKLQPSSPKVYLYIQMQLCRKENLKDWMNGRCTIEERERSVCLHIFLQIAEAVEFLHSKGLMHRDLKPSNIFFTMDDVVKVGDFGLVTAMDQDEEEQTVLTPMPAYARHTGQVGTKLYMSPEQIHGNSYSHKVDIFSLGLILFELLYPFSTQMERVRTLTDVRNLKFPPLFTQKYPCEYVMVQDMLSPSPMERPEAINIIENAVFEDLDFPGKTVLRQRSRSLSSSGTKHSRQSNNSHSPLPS
MPS1, sequence (P33981 2-857): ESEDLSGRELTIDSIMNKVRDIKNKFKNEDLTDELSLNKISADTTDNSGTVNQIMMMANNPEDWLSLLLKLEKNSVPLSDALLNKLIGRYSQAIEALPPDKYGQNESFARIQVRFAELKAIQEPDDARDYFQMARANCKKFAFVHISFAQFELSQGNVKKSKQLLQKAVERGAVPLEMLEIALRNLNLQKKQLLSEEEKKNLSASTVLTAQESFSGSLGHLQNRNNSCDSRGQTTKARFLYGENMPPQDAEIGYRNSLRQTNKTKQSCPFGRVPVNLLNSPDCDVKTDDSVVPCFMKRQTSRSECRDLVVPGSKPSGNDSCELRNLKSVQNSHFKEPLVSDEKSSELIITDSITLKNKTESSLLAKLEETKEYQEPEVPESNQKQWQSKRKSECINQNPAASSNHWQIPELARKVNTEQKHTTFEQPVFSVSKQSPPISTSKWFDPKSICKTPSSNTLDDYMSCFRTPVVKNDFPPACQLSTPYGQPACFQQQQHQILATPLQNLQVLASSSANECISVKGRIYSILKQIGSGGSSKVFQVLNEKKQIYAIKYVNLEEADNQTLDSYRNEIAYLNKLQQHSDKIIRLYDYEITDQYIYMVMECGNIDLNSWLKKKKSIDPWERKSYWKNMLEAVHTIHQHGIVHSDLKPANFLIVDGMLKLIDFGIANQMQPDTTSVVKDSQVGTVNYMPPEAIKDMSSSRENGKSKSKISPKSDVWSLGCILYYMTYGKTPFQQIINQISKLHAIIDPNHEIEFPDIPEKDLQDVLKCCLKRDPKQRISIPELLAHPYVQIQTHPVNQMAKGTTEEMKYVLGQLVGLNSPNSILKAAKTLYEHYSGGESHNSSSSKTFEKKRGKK

In the case of `COc1cc(C(=O)NC2CCN(C)CC2)ccc1Nc1ncc2c(n1)-c1noc(C(N)=O)c1C(C)(C)C2` [Compound 30, 8-({2-methoxy-4-[(1-methylpiperidin-4-yl)carbamoyl]phenyl}amino)-4,4-dimethyl-4,5-dihydroisoxazolo[4,3-h]quinazoline-3-carboxamide], the IC50 worked out at 680 nM against MPS1 and 400 nM on PERK.

On to `COc1cc(C(=O)NC2CCN(C)CC2)ccc1Nc1ncc2c(n1)-c1onc(C(N)=O)c1CC2(C)C` [Compound 55, 8-({2-methoxy-4-[(1-methylpiperidin-4-yl)carbamoyl]phenyl}amino)-5,5-dimethyl-4,5-dihydroisoxazolo[4,5-h]quinazoline-3-carboxamide], for which the figures for the IC50 on MPS1 and against PERK were 3440 nM and 510 nM, respectively.

With `COc1cc(C(=O)NC2CCN(C)CC2)ccc1Nc1ncc2c(n1)-c1onc(C(=O)N[C@@H](CN)c3ccccc3)c1CC2(C)C` [Compound 61, N-[(1R)-2-amino-1-phenylethyl]-8-({2-methoxy-4-[(1-methylpiperidin-4-yl)carbamoyl]phenyl}amino)-5,5-dimethyl-4,5-dihydroisoxazolo[4,5-h]quinazoline-3-carboxamide], the 50% inhibitory concentration (IC50) at MPS1 came out at 360 nM; on PERK, 240 nM.

Usually IC50 stands for the midpoint of a concentration-inhibition curve.
